Experimental data: article PMC8497791 (Frontiers in Pharmacology, 2021)

Assays:
[1] = parameters: method as in Mok et al., 2017; conditions: metabolite of osimertinib; ref Mok et al., 2017; cited from earlier work
ABCB1 = target: T1, ABCB1 (Homo sapiens, UniProt P08183); test: Bidirectional transport across ABCB1-MDCK monolayers; assay type: in vitro ADME; conditions: for ABCB1 transporter substrate assessment: criterion ER >2, ABCB1-MDCK vs MDCK
T1 construct: expressed in transfected cells; host or cells: MDCK (canine kidney) cells transduced with lentivirus from pLVX-CMV-ABCB1
Description: (§1) To establish an MDCK transgenic cell line that can stably express human ABCB1 and BCRP and to identify whether it is suitable for drug delivery experiments, lentivirus shuttle plasmids pLVX-CMV-ABCB1 and pLVX-CMV-BCRP and their auxiliary packaging plasmids PSPAX2 and PMD2G, were extracted with high purity and free of endotoxin, respectively. 293T cells were transfected with Lipofectamine™ 3000 transfection reagent, and the medium was changed 6 h after transfection. After culturing for 24 and 48 h, the cell supernatants, rich in lentivirus particles, were collected and concentrated by ultracentrifugation. Before lentivirus transfection for 18–24 h, adherent MDCK cells were spread on 24-well plates at a density of 1 × 10^5/well. The number of cells transfected with lentivirus was approximately 2 × 10^5/well. The next day, the original medium was replaced with 2 ml of fresh medium containing 6 μg/ml polybrene, and then an appropriate amount of virus suspension; the plates were incubated at 37°C. After 4 h, 2 ml of fresh medium was added to dilute polybrene. The cells were cultured for another 24 h, and the medium containing virus was replaced with fresh medium. After 3–4 days of transfection, puromycin was added to screen the cell lines stably expressing ABCB1 and BCRP.
(§2) MDCK, ABCB1-MDCK, and BCRP-MDCK cells were inoculated in Tmur75 culture bottles with high-glucose DMEM. The cells were counted using a cell counter, the cell density was adjusted to 2.0 × 10^5 cells/ml, and the cells were inoculated in 12-well transwell plates [1.13 cm^2 insert area, 0.4 µm pore size (Corning Life Sciences, New York, NY, United States)]. Thereafter, 0.5 ml of cell suspension was added to the villous surface of each hole (AP side) and 1.5 ml of blank culture medium was added to the basal surface (BL side). After 24 h of culture in the incubator, the fresh culture medium was changed on both AP and BL sides, and the medium was changed every day for 3–5 days. In this experiment, transmembrane resistance was used to evaluate the compactness and integrity of the cell model. When the transmembrane resistance (TEER) is greater than 300 Ω cm^2, the cell monolayer is considered dense and intact. The higher the TEER value, the tighter the monolayer connection. The TEER of monolayer cells was calculated using the following formula: TEER = (R - Rb) × A; where, R is the resistance of the well inoculated with cells, Rb is the blank well without cell inoculation, and A is the membrane area of the polycarbonate membrane.
(§3) Before the transport experiment, the cell monolayer was washed with blank HBSS solution at 37°C three times, and then placed in a CO2 incubator and balanced with HBSS solution for 30 min at 37°C. The transport of the AP→BL side: 0.5 ml of the test solution was added to the AP side as the supply pool, whereas 1.5 ml of blank HBSS solution was added to the BL side as the receiving pool. Before sampling, 0.1 ml of the sample was collected from the BL side in the centrifuge tube, and after sampling, 0.1 ml of blank HBSS, transport sample, was added to the BL side to precipitate protein with methanol, and used for liquid chromatography-tandem mass spectrometry (LC-MS) detection. The transport of the BL→AP side: 1.5 ml of the test solution was added to the BL side as the supply pool, whereas 0.5 ml of blank HBSS solution was added to the AP side as the receiving pool. First, 0.1 ml of the sample was collected on the AP side in the centrifuge tube, and then 0.1 ml of HBSS was added to the AP side after sampling. A transport sample was added to the AP side to precipitate the protein with methanol and used for LC-MS detection.
(§4) The protein was precipitated with methanol in 0.1 ml of blank HBSS, transport sample, and used for LC-MS detection. Drug absorption was determined by LC-MS/MS.

BCRP = target: T2, BCRP (Homo sapiens, UniProt Q9UNQ0); test: Bidirectional transport across BCRP-MDCK monolayers; assay type: in vitro ADME; conditions: for BCRP transporter substrate assessment: criterion ER >2, BCRP-MDCK vs MDCK
T2 construct: expressed in transfected cells; host or cells: MDCK (canine kidney) cells transduced with lentivirus from pLVX-CMV-BCRP
T2 sequence (Q9UNQ0 1-655): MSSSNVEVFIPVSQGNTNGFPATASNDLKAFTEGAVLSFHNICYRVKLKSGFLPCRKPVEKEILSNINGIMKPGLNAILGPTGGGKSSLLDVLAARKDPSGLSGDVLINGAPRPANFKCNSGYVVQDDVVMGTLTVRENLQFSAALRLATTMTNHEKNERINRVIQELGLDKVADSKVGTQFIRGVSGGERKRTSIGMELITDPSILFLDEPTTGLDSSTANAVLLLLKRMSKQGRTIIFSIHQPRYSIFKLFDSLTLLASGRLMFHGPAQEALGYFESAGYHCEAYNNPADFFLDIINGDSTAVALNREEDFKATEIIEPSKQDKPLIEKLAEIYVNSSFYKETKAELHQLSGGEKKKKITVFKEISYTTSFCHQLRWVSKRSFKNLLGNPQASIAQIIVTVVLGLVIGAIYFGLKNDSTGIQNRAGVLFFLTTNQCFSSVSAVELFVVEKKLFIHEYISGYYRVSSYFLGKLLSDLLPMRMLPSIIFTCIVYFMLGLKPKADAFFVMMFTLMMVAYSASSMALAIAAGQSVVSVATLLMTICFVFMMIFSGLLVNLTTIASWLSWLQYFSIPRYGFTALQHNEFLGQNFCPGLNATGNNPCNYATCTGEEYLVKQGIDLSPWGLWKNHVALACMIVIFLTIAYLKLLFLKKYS
Description: as §1, §2, §3, §4

MDCK cell monolayers = test: Bidirectional transport across MDCK monolayers; assay type: in vitro ADME, canine
Description: as §2, §3, §4

[2] = mouse, in vivo, po, 25 mg/kg
Description: (§5) The blood and brain tissues of mice with brain metastases were sampled at 0.5, 1, 2, 4, 8, and 24 h post dosing.
(§6) Chromatographic column:Thermo Hypersil C18 100 × 2.1 mm, 3 μm; Flow rate: 0.4 ml/min; Water phase: 0.1% formic acid aqueous solution; Organic phase: 0.1% formic acid/acetonitrile; Needle wash: methanol; Column oven temperature: 40°C; Autosampler temperature: 10.0°C; Automatic sampling Injection volume of the detector: 5.00 µl.
(§7) Dilute the 2.00 mg/ml stock solution to obtain standard curve solutions with concentrations of 500, 200, 50, 2, 1, and 0.5 ng/ml.
(§8) Dissolve the serum sample at room temperature, take 50 μl, add 150 μl methanol, vortex for 5 min, place in a centrifuge at 15,000 rpm for 10 min, take the supernatant for analysis. Weigh the tissue sample, add 2 ml of methanol, grind for 5 min, vortex and mix for 5 min, place it in a centrifuge at 15,000 rpm for 10 min, and take the supernatant for analysis.

[3] = system: PC9-LUC brain metastatic tumor; test: Mouse brain metastasis xenograft (intracranial PC9-LUC); assay type: in vivo, BALB/c nude mice; conditions: for growth of intracranial tumors (bioluminescence) / body weight of mice: 10 and 25 mg/kg once daily
Description: The brain metastasis model was established via intracranial injection of tumor cells into 6–8-week-old SPF female BALB/c nude mice. The tumor seeding process, which is an aseptic operation, was carried out on an ultra-clean bench. The tumor cells used in this experiment were PC9-LUC cells, and the concentration of the cell suspension was 1 × 10^8/ml. Pentobarbital sodium at 50 mg/kg body weight was administered via intraperitoneal injection. The top of the mouse skull was cut along the center of the skull from the ears to the eyes. An area of about 1–2 cm of the skull was then wiped repeatedly with a cotton swab to remove the fascia and expose the cranial sutures. Holes were then drilled 1 mm below the coronal suture of the skull and 2–2.5 mm from the sagittal suture while keeping the mouse head level. The cranial drill was inserted vertically and the drill was operated at low speed to avoid brain damage. Each mouse was then placed on the brain stereotaxic device, the tip of the syringe needle was aligned with the hole on the skull, and 3 μl of cell suspension (3 × 10^5 cells) was injected via a needle at a depth of 3 mm from the skull. The needle was maintained for 1–2 min following cell injection and then withdrawn. A cotton swab was used to compress the wound and medical adhesive was used to bond the skin wounds. Mice were then placed on a heating blanket and then returned to the animal room for recovery and ongoing nurture. Bioluminescent (BLI) signals were measured weekly using the IVIS Xenogen Imaging system (FX-PRO, United States) to monitor tumor growth. […] The BLI signal was measured once a week and the body weight of the mice was recorded.

[4] = system: PC9-LUC spinal cord metastases; test: Mouse spinal cord metastasis model (PC9-LUC); assay type: in vivo, nude mice; conditions: for biofluorescence signal of intracranial and spinal cord tumors: vs control
Description: The BLI signal was measured once a week, and the body weight of the mice was recorded.
For the spinal cord metastasis model, PC9-LUC cells were injected into the brain ventricles of nude mice, and the mice were placed in an SPF environment. […] These mice were then randomly divided into five groups (five in each group) to receive various treatments. After 16 days of modeling, bioluminescence imaging was used to assess the growth and metastasis of PC9-LUC cells every week.

[5] = Bidirectional transport across MDCK monolayers; assay type: in vitro ADME, canine; conditions: dog, read-out: efflux ratio (ER)
Description: as §2, §3, §4

[6] = system: EGFR 19del mutant lung adenocarcinoma and brain metastases; test: Clinical case study, EGFR 19del lung adenocarcinoma with brain metastases; assay type: in vivo, human; conditions: one patient
Description: Herein, we present details of a clinical case study. In this case, brain metastases were recorded at the beginning of the study, and almonertinib was administered for several weeks to allow magnetic resonance imaging of the brain to observe the progression of the disease. Written informed consent was obtained from the patient. The work has been carried out in accordance with The Code of Ethics of the World Medical Association (Declaration of Helsinki).

[7] = target: EGFR T790M mutant protein (Homo sapiens, UniProt P00533, T790M); test: biochemical
Description: First, according to the standard procedure, a COOH sensor chip was installed on the Open SPR instrument. The buffer was run at the maximum flow rate and exhaust bubbles after reaching the signal baseline. […] The buffer flow rate was then depressed to 20 µl/min and a sample of 200 µl EDC/NHS (1:1) solution was run for 4 min. Then, the injection instrument of the 200 µl ligand was operated for 4 min. Diluted with activation buffer, Once the ligand-chip interaction was completed, the upper sample mouth was rinsed with buffer and emptied by air. Sample 200 µl Blocking (20 µl/min,4 min) solution, buffer (PBS) rinse the sample ring and empty it by air. The baseline was then observed for 5 min to ensure stability. Finally, different concentrations of analyte were injected separately on the surface of the ligand chip (the concentration is detailed in the experimental results), and the analyte was sampled at 20 µl/min. The binding time of the analyte to the ligand was 240 s and the natural dissociation occurred at 480 s. The 200 µl sample flowed through the chip for 240 s at a constant flow rate of 20 µl/min in each cycle.
The combined compounds can be dissociated from the coating surface by acid and alkali. […] Finally, the kinetic parameters of the binding reactions were calculated and analyzed using Trace Drawer software (Ridgeview Instruments AB, Sweden).

[8] = Mouse pharmacokinetic study, plasma and brain by LC-MS
Description: as §5, §6, §7, §8

[9] = system: EGFR-mutated NSCLC brain metastases; parameters: method as in Liu et al., 2020; conditions: patients, ref Liu et al., 2020; cited from earlier work
[10] = parameters: method as in Mok et al., 2017; conditions: AURA3; ref Mok et al., 2017; cited from earlier work
[11] = female, BALB/c nude, mouse, brain, po, 25 mg/kg
[12] = female, BALB/c nude, mouse, plasma, po, 25 mg/kg
[13] = brain metastasis model, 25 mg/kg once daily

T1 sequence (P08183 whole entry): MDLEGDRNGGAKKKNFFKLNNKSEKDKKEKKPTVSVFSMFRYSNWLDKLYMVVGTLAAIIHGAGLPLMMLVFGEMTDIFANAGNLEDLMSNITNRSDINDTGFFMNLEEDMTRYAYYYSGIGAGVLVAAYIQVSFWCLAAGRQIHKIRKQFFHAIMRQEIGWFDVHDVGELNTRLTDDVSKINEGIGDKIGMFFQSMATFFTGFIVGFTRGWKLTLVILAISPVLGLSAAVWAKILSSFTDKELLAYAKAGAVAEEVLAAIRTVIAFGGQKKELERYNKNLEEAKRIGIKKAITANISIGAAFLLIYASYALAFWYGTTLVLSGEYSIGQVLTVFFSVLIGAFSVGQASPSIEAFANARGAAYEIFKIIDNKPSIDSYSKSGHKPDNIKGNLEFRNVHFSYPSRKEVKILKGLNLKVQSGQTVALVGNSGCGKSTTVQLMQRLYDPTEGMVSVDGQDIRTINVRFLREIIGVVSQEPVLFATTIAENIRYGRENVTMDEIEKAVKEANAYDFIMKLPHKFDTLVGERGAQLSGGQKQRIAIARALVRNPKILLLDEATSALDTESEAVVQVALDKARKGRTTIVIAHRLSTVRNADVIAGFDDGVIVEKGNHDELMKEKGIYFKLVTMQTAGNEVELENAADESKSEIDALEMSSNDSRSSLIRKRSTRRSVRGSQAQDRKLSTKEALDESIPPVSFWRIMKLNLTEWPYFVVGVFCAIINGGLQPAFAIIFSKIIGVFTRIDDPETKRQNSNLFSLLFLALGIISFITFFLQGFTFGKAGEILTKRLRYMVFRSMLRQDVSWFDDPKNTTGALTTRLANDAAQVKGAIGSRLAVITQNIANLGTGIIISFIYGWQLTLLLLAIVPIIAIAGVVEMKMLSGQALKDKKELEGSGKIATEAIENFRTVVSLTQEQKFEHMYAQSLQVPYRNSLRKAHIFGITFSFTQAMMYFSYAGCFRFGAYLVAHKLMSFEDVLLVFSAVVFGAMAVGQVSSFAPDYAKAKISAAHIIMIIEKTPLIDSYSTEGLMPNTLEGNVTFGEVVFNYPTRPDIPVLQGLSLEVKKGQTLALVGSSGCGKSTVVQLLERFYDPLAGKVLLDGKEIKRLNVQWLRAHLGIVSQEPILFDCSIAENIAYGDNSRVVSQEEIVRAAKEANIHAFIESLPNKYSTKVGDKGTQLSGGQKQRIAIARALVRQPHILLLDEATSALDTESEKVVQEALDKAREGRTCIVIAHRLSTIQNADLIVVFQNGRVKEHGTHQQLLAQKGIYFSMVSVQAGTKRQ
Chain of EGFR T790M mutant protein (P00533 25-1210 T790M): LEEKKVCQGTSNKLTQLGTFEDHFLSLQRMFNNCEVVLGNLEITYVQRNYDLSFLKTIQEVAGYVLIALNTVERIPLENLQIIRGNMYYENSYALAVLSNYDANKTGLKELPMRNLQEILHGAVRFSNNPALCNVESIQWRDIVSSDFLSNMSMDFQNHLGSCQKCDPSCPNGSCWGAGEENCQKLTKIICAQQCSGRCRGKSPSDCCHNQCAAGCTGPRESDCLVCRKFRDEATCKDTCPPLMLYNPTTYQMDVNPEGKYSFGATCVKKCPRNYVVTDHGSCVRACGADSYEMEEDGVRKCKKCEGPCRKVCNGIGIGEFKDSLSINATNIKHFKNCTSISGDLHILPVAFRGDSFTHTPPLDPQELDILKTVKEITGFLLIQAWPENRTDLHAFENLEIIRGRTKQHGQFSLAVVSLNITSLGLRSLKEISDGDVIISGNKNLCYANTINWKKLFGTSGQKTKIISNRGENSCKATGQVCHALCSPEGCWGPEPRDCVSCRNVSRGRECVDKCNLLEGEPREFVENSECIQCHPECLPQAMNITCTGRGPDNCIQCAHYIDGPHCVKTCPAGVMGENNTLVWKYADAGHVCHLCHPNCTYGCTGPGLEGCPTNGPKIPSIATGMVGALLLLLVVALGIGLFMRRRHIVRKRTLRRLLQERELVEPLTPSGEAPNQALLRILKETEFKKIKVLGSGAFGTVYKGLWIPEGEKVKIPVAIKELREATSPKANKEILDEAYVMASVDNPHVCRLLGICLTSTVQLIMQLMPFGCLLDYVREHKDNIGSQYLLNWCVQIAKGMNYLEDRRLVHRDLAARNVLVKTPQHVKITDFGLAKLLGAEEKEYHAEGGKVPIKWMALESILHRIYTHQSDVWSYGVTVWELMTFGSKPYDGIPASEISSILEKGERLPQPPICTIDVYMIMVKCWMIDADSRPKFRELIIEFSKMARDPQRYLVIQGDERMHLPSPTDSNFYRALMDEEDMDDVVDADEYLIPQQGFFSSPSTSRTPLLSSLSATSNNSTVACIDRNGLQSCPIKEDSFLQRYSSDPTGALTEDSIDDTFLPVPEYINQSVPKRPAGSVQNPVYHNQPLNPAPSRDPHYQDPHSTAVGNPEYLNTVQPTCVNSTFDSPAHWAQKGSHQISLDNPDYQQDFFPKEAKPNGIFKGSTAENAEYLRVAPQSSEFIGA

SMILES: C=CC(=O)Nc1cc(Nc2nccc(-c3c[nH]c4ccccc34)n2)c(OC)cc1N(C)CCN(C)C [AZ5104]
- concentration of active metabolite in the human body [1]: ~10%

SMILES: C=CC(=O)Nc1cc(Nc2nccc(-c3cn(C4CC4)c4ccccc34)n2)c(OC)cc1N(C)CCNC [HAS-719]
- efflux ratio (ER) (ABCB1; ABCB1-MDCK, 1 μM): 29.83
- efflux ratio (ER) (ABCB1; ABCB1-MDCK, 10 μM): 12.26
- efflux ratio (ER) (ABCB1; ABCB1-MDCK, 20 μM): 5.5
- ABCB1 transporter substrate assessment (ABCB1): ABCB1 and BCRP transporter substrates
- efflux ratio (ER) (BCRP; BCRP-MDCK, 1 μM): 11.59
- efflux ratio (ER) (BCRP; BCRP-MDCK, 10 μM): 5.07
- efflux ratio (ER) (BCRP; BCRP-MDCK, 20 μM): 2.49
- BCRP transporter substrate assessment (BCRP): ABCB1 and BCRP transporter substrates
- efflux ratio (ER) (MDCK cell monolayers; 1 μM): 2.81
- efflux ratio (ER) (MDCK cell monolayers; 10 μM): 1.61
- efflux ratio (ER) (MDCK cell monolayers; 20 μM): 1.62
- Tissue/plasma AUC ratio [2]: 0.21

SMILES: C=CC(=O)Nc1cc(Nc2nccc(-c3cn(C4CC4)c4ccccc34)n2)c(OC)cc1N(C)CCN(C)C [almonertinib]
- neurological function (sticky dot test, vertical test) ([3]; 25 mg/kg, vs control group): significant improvement in neurological function
- growth of intracranial tumors (bioluminescence) [3]: effectively inhibited the growth of intracranial tumors
- number of proliferative cells (Ki-67, histological analysis of brain tissue) ([3]; brain metastasis model): significantly decreased
- body weight of mice ([3]; brain metastasis model): decreased after administration
- overall survival time of mice ([3]; brain metastasis model, 10 and 25 mg/kg, 60 days): longer than that of mice in the osimertinib group
- tumor growth / regression ([4]; 5 mg/kg, spinal cord metastatic mice): can inhibit tumor growth but cannot cause tumor regression
- biofluorescence signal of intracranial and spinal cord tumors ([4]; high-dose group (25 mg/kg Qd)): significantly reduced
- proliferation of tumor cells (H&E and Ki-67 staining of spinal cord) ([4]; high-dose group (25 mg/kg)): significant inhibition in the proliferation of tumor cells
- biofluorescence signal of intracranial and spinal cord tumors ([4]; low-dose group (5 mg/kg Qd)): did not change significantly
- survival time ([4]; spinal cord metastasis model, vs osimertinib-administered group): longer survival time
- ABCB1 transporter substrate assessment (ABCB1): ABCB1 and BCRP transporter substrates
- efflux ratio at 1 μM (ABCB1; human, MDCK-MDR1, ABCB1-MDCK, 1 μM, read-out: efflux ratio (ER)): 5.2
- efflux ratio at 10 μM (ABCB1; human, MDCK-MDR1, ABCB1-MDCK, 10 μM, read-out: efflux ratio (ER)): 2.75
- efflux ratio at 20 μM (ABCB1; human, MDCK-MDR1, ABCB1-MDCK, 20 μM, read-out: efflux ratio (ER)): 1.84
- BCRP transporter substrate assessment (BCRP): ABCB1 and BCRP transporter substrates
- efflux ratio at 1 μM (BCRP; human, BCRP-MDCK, 1 μM, read-out: efflux ratio (ER)): 4.62
- efflux ratio at 10 μM (BCRP; human, BCRP-MDCK, 10 μM, read-out: efflux ratio (ER)): 2.51
- efflux ratio at 20 μM (BCRP; human, BCRP-MDCK, 20 μM, read-out: efflux ratio (ER)): 1.53
- efflux ratio at 1 μM ([5]; 1 μM): 1.1
- efflux ratio at 10 μM ([5]; 10 μM): 1.42
- efflux ratio at 20 μM ([5]; 20 μM): 1.02
- intracranial tumor response ([6]; 110 mg po qd first-line, after 8 weeks): partially responded
- abnormalities during treatment ([6]; 110 mg po qd): no other abnormalities
- Kd [7]: 11.1 µM
- detectability in plasma and brain tissue ([8]; 24 h after 25 mg/kg oral): could still be detected
- BBB penetration ([8]; PC9-LUC BM xenograft mice, almonertinib 25 mg/kg oral): excellent BBB penetration
- tmax ([8]; brain, almonertinib 25 mg/kg oral): 2 h
- AUC(0-t) [8, 11]: 30.6 µM·h
- Cmax [8, 11]: 5.36 µM
- MRT last [8, 11]: 6.19 h
- Kp ([8]; female, BALB/c nude, mouse, brain/plasma, po, 25 mg/kg): 1.82
- AUC(0-t) [8, 12]: 16.9 µM·h
- Cmax [8, 12]: 6.41 µM
- MRT last [8, 12]: 5.42 h
- tmax ([8]; female, BALB/c nude, mouse, plasma, po, 25 mg/kg, tmax, almonertinib 25 mg/kg oral): 0.5 h

SMILES: C#Cc1cccc(Nc2ncnc3cc4c(cc23)OCCOCCOCCO4)c1 [icotinib]
- median intracranial progression free survival (PFS) [9]: 8.4 months

SMILES: C=CC(=O)Nc1cc(Nc2nccc(-c3cn(C)c4ccccc34)n2)c(OC)cc1N(C)CCN(C)C [osimertinib]
- growth of intracranial tumors (bioluminescence) [3]: effectively inhibited the growth of intracranial tumors
- skin of mice [3, 13]: appeared to be keratinized
- weight loss [3, 13]: more obvious
- body weight of mice ([3]; brain metastasis model): decreased after administration
- biofluorescence signal of intracranial and spinal cord tumors ([4]; high-dose group (25 mg/kg Qd)): significantly reduced
- biofluorescence signal of intracranial and spinal cord tumors ([4]; low-dose group (5 mg/kg Qd)): did not change significantly
- grade 1 and 2 diarrhea, patients affected [10]: 41%
- grade 1 and 2 rashes, patients affected [10]: 34%
